Consider 3 compounds from paper PMC8578629, “Photoactivated cell-killing amino-based flavylium compounds” (Scientific Reports, 2021).

In series [1] the test system is HaCaT cells. Description: Reactive oxygen species production (DCF-DA). Format: cell-based, human. The settings on record: 25 μM, 6.6 J cm^−2, versus control cells. Here is the method: Cells reactive oxygen species (ROS) production was evaluated following the standard method. Briefly, cells were seed at a density of 4 × 10^4 cells/mL onto 96 well plates and after 24 h the compounds were added at 25 μM (non-toxic concentration) and the same previous procedure for the photoactivation assays was followed. After that, cells were washed twice in Hank’s Buffered Saline Solution (HBSS) and incubated with 100 μL of 50 μM 2′,7′-dichlorodihydrofluorescein diacetate (DCF‐DA) for 30 min in the same previous conditions. For positive control, cells were treated with 100 μM H2O2 for 30 min prior to the addition of DCF-DA. Cells were then washed twice with HBSS and incubated with fresh DMEM medium for 24 h. After this period, the fluorescence intensity at […] (ex/em) was determined in a FlexStation 3 Multi-Mode Microplate Reader.

Series [2] in a line: Molar absorption coefficient (ɛ) at 630 nm. Type of series: physicochemical. As for the experimental part:
The molar extinction coefficient or molar absorption (ɛ), of all synthesized pigments was determined in three different solvents (ethanol, methanol and DMSO). For each pigment, in each solvent, a range of concentrations was prepared and then the spectrum of each solution was read. Finally, the respective absorbances (collected at 630 nm) were represented as a function of concentration and the ɛ value was taken from the slope value of the equation curve.

Series [3] in a line: Fluorescence quantum yield by the absolute method (integrating sphere). The note with it: in DMSO. Type of series: physicochemical. As for the experimental part: Based on the absorbance maxima of the different compounds (Fig. S2), the measurement of the quantum yield (QY) of the synthesized flavylium derivatives was performed using a calibrated Quantaurus-QY stand-alone integrating sphere setup C11347-11 (Hamamatsu Photonics, Hamamatsu, Japan) equipped with an integration sphere, a monochromator, a spectrograph, a 150 W xenon light source and a silicon charge coupled device. Each compound was dissolved in DMSO and diluted to ensure an absorbance of 0.1 from the λmax of excitation forward. Each compound was then irradiated at the corresponding wavelength and the absolute quantum yield determined. The fluorescence spectra was also recorded (Fig. S3). For each compound, four independent experiments were performed.

Series [4] can be described thus: Oxygen singlet production by Singlet Oxygen Sensor Green assay. The settings on record: for ^1O2 production: compound 25 μM, after white light irradiation 79.2 J cm^−2. As for the experimental part: The production of singlet oxygen by the different amino-based compounds in solution was determined as follows: a stock solution of Singlet Oxygen Sensor Green was prepared at 5 mM in methanol (MeOH). Working solutions of the probe were prepared at 2 mM in 100 mM pH 7.5 Tris buffer and in 100 mM pH 7.5 Tris buffer with 10 mM of Sodium Azide. The compounds were then prepared at a stock concentration of 500 μM and the working solutions were prepared in 100 mM pH 7.5 Tris buffer and in 100 mM pH 7.5 Tris buffer with 10 mM of Sodium Azide. 1 μL of Singlet Oxygen Sensor Green working solutions and 100 μL of compounds solution were mixed to a final volume of 1000 μL (in 100 mM pH 7.5 Tris buffer or in 100 mM pH 7.5 Tris buffer with 10 mM of Sodium Azide). 100 μL of each solution was then added to a 96-well black plate and 100 μL of Deuterium Oxide was added for a final concentration of 1 μM Singlet Oxygen Sensor Green and 25 μM for the different amino-based compounds. The fluorescence was then registered in a spectrofluorometer using excitation/emission of 488/525 nm. After this procedure, the wells were irradiated with a white light source with a total of 79.2 J cm^−2, corresponding to a total irradiation time of 1 h (6 pulses of 10 min) and then, the fluorescence determined using the same excitation/emission pair. As a positive control, Methylene Blue was used at a final concentration of 10 μM. The oxygen singlet production methodology was performed in a dark room.

In series [5] the test system is HaCaT cells. Description: Cellular photoactivation assay (white light or dark, Alamar Blue). Type of series: cell-based, human. Here is the method: A white light LED homemade device prototype has 96 LEDs appropriately arranged on a plate of 13 cm length × 8 cm width, with a distance from the microplate surface of 8 cm. The prototype has an irradiance of 21 W m^−2 and a wavelength range of 408–707 nm (Fig. S4).
For the cellular photoactivation assays, the white light source of 21 W m^−2 was used. Briefly, cells were seed at a density of 4 × 10^4 cells/mL onto 96 –well plates and after 24 h the compounds were added to the plates in different concentrations (6.25–100 μM) and incubated for a period of 4 h at 37 °C in an atmosphere of 5% CO2 and in the presence of DMEM with 2% FBS. After this period, the medium with the compounds was removed and fresh medium (DMEM with 2% FBS without phenol red (DMEM_2% FBS_w/o_PR) was added to cells. Following this procedure, cells were submitted to light irradiation, the selected light source at a height of 8 cm, in a chamber designed to ensure the same light quantity for each well during the treatment. Cells were irradiated for 10 min at an intensity of 50%, at room temperature (making a total energy exposition of 6.6 J cm^−2). The dark treatment was prepared by placing the plates for 10 min in a dark box at room temperature. After this, the 96 well plates were placed in an incubator at 37 °C in an atmosphere of 5% CO2 for 24 h. Then, to determine cell survival the Alamar Blue assay was performed as follows: after the 24 h, 20 μL of a solution of Resazurin (0.15 mg mL^−1 in PBS filtered in 0.22 μm filters) were added to each well (making a total volume of 120 μL per well), and the plates were incubated between 4–6 h (until the development of visible color change from violet to pink). The fluorescence intensity of each well was then determined at 560/590 nm (ex/em) (FlexStation 3 Multi-Mode Microplate Reader).
For orientation: Resazurin is reduced to fluorescent resorufin, in cell work by metabolically active cells.

Series [6] is described as follows: MTT cytotoxicity assay, fibroblasts. Format: cell-based. The note with it: human, HFF-1 cells (fibroblasts), HFF-1, proliferation condition, dark. Here is the method: (§1) The cytotoxicity of amino-based flavylium compounds to HFF-1 (ATCC Number: SCRC-1041) and HaCaT cells was evaluated using the standard MTT assay. Briefly, cells were seeded at a density of 8 × 10^5 and 4 × 10^4 cells/mL, respectively, in 96-well plate and incubated at 37 °C in a 5% CO2 atmosphere. Cells were allowed to grow for 24 h or until reaching monolayer confluency, and serially diluted compound solutions (6.3–100 µM) were added to the plate wells. The stock solutions of each compound were prepared at 200 mM in DMSO, the maximum % of DMSO in the cells was 0.05%. Then, cells were incubated for 48 h at 37 °C, after which the plate wells were washed once with phosphate buffered saline (PBS, Sigma-Aldrich), followed by addition of a 0.45 mg/mL MTT solution to each well. Crystals were allowed to form for 1.5 h. The reaction was stopped by rejecting the medium followed by the addition of 100 µL of DMSO (Sigma-Aldrich). The absorbance was read at 570 nm in FlexStation 3 Multi-Mode Microplate Reader (Molecular Devices, California, USA).
For orientation: Tetrazolium dyes change colour on reduction, which living cells bring about.

Series [7] can be described thus: MTT cytotoxicity assay, keratinocytes. Type of series: cell-based. The settings on record: human, HaCaT cells (keratinocytes), dark. Here is the method:
as §1

As a reminder, the IC50 is the point on the concentration scale where inhibition reaches its midpoint. Read a high IC50 as weaker potency in that assay.

For `CN(C)c1ccc(/C=C/c2ccc3c(O)cc(O)cc3[o+]2)cc1` [5,7OHst4′NMe2, 5,7-dihydroxy-2-(4′-dimethylaminostyryl)-benzopyrylium], in the series on HaCaT cells [1], the “ROS production upon white light irradiation (in words)” value is listed as “did not modulate the production of ROS”. The “Molar absorption coefficient ɛ at 630 nm” value was 15,224 M^−1 cm^−1 in series [2] (DMSO), 16,422 M^−1 cm^−1 in series [2] (Ethanol) and 15,224 M^−1 cm^−1 in series [2] (Methanol). In series [3], the “Quantum yield of fluorescence (Φf), mean ± SD” value is reported as “undetectable”. Moreover, the “^1O2 production” value in series [4] was “non-significant enhancement”. Besides, the “Dark cytotoxicity to HaCaT cells (in words)” value in the series on HaCaT cells [5] (4 h incubation, 6.25–100 μM applied, dark) is recorded as “did not present significant effects”. The “Photoactivation, dark versus white light (in words)” value in the series with HaCaT cells [5] (4 h incubation, 6.25–100 μM applied, white light 6.6 J cm^−2) is “not photoactivated”.
Take `CN(C)c1ccc2nc3ccc(=[N+](C)C)cc-3sc2c1` [methylene blue, Methylene Blue, reference compound]: the “^1O2 production yield, times higher (positive control)” value in series [4] (10 μM, same amount of light irradiation) is “about 5 fold”.
Turning to `CN(C)c1ccc(-c2ccc3c(O)cccc3[o+]2)cc1` [5OH4′NMe2, 5-hydroxy-4′-(dimethylamino)-benzopyrylium], the values for the IC50 at 48 h in series [6], in series [7] (monolayer confluence) and in series [7] (proliferation) were 47.25 ± 0.21 µM, 47.3 ± 0.3 µM and 14.9 ± 0.1 µM, respectively. Moreover, the “ROS production upon white light irradiation (in words)” value in the series with HaCaT cells [1] is given as “significantly increased”. Further, the “Quantum yield of fluorescence (Φf), mean ± SD” value in series [3] is on record as “undetectable”. The “^1O2 production” value in series [4] was “non-significant enhancement”. Further, in the series on HaCaT cells [5] (applied concentration 6.25 and 12.5 μΜ), the “Reduction of cell survival upon light irradiation” value is “less than 20%”. This compound also gave a Cell survival with HaCaT cells [5] (either in the presence or absence of light, highest concentration tested) of 40%.
